The data set in a line: Circular dichroism (CD) spectrum, molar ellipticity at about 270 nm as measure of base moiety orientation (syn/anti). The format is physicochemical. As to conditions: for Δ[θ]ext: phosphate buffer minus borate buffer; for change of [θ]ext / CD peak from phosphate buffer to borate buffer (borax): phosphate vs borate buffer. An excerpt: The molar ellipticity ([θ]max) at about 270 nm in the CD spectrum of a nucleoside reflects two factors, namely the orientation of the base moiety to the furanose moiety and the puckering of the furanose ring. It is known that the molar ellipticity at about 270 nm markedly decreases in the syn orientation as compared with the anti orientation. […]
[…] […] The rate of syn orientation induction in Urd in the presence of boric acid was smaller as compared with IPU but this can be explained by the presence of an equilibrium between the borate ester formation and the dissociation.
Specifically, CD spectra were measured with Urd, 5′-aminouridine (5′-NH2-Urd) and 5′-aminoisopropylideneuridine (5′-NH2-IPU) in phosphate buffer (pH 7.2) and with 5′-NH2-Urd in borate buffer (pH 7.2) for the investigation of uracil moiety orientations. […] This is presumably due to a syn orientation-inducing effect of hydrogen bond formation between the oxygen atom of the 2-position carbonyl group of the nucleoside base moiety and the 5′-position amino hydrogen atom. Under the measurement conditions in this case, the 5′-position amino group of 5′-NH2-Urd occurs in an ammonium ion state and presumably serves as a good hydrogen bond donor. […] This is probably due to two synergistic effects, namely the fixation of the sugar moiety to the 2′,3′-planar structure and the hydrogen bond formation between the 5′-position amino group and the 2-position carbonyl group of the base moiety.
Then, on the supposition that Urd in phosphate buffer ([θ]max value=9700) is in an ideal 100% anti orientation and 5′-NH2-IPU in phosphate buffer ([θ]max value=1200) in an ideal 100% syn orientation, the orientations of the base moiety (uracil) of uridine and uridine derivatives (5′-NH2-Urd, IPU, 5′-NH2-IPU) were evaluated under different conditions (in phosphate buffer, in borate buffer).
A general note: Circular dichroism is the unequal absorption of left and right circularly polarised light.

Setting [1] is: phosphate buffer (pH 7.2), no borax, Urd = 100% anti, 5′-NH2-IPU = 100% syn supposed.

This note sets out measurements from patent publication US7442788B2, “Antisense molecules and method of controlling expression of gene function by using the same” (Japan Science and Technology Corporation, priority 2001, dated 2008).

Consider “5′-aminoisopropylideneuridine [5′-NH2-IPU, reference compound]”, for which, under “phosphate buffer (pH 7.2)”, the “[θ]max” value was found to be 1200 deg cm^2dmol^−1. Moreover, under setting [1], the “proportion of syn orientation of the base moiety” value was 100 % syn.
Take `NC[C@H]1O[C@@H](n2ccc(N)nc2=O)[C@H](O)[C@@H]1O` [5′-NH2-Cyd, 5′-amino-5′-deoxycytidine]: the “[θ]max” value (borate buffer (pH 7.2)) is on record as 4900 deg cm^2dmol^−1 and the “[θ]max” value (phosphate buffer (pH 7.2)) came out at 8400 deg cm^2dmol^−1.
`Cc1cn([C@H]2C[C@H](O)[C@@H](CN)O2)c(=O)[nH]c1=O` [5′-NH2-Thd [A], 5′-amino-5′-deoxythymidine, reference compound]: the “Δ[θ]ext” value was −350. Also, the Molar ellipticity ([θ]ext) at about 270 nm (borate buffer (pH 7.2)) is 950 deg·cm2/dmol. For the same compound, the Molar ellipticity ([θ]ext) at about 270 nm (phosphate buffer (pH 7.2)) worked out at 600 deg·cm2/dmol.
On to `CC(C)(C)OC(=O)N[C@@H](CCC(=O)NC[C@H]1O[C@@H](n2ccc(=O)[nH]c2=O)[C@H](O)[C@@H]1O)C(=O)O` [Boc-isoGln(5′U)-OH, N^α-t-butoxycarbonyl-N^5-(5′-deoxy-5′-uridyl)-L-isoglutamine], for which the “proportion of syn orientation of the base moiety” value (borate buffer (pH 7.2)) was 56 % syn.
Turning to `Nc1ccn([C@@H]2O[C@H](CO)[C@@H](O)[C@H]2O)c(=O)n1` [Cytidine (Cyd), Cytidine, reference compound], the “[θ]max” value came out at 12200 deg cm^2dmol^−1 (borate buffer (pH 7.2)) and 14200 deg cm^2dmol^−1 (phosphate buffer (pH 7.2)).
With `O=c1ccn([C@@H]2O[C@H](CO)[C@@H](O)[C@H]2O)c(=O)[nH]1` [Urd, uridine, reference compound], where the note is “borate buffer (pH 7.2)”, the “[θ]max” value worked out at 7400 deg cm^2dmol^−1 and the “proportion of syn orientation of the base moiety” value was 27 % syn. In addition, under “phosphate buffer (pH 7.2)”, the “[θ]max” value is listed as 9700 deg cm^2dmol^−1 and the “proportion of anti orientation of the base moiety” value is listed as 100 % anti.
Take Boc-AEG(5′U)-OH: the “proportion of syn orientation of the base moiety” value was found to be 76 % syn (5.5 mM borax added, phosphate buffer pH 7.2); 41 % syn (5.5 mM borax, pH adjusted from 7.2 to 6.2); 64 % syn (borate buffer (pH 7.2)); 39 % syn under setting [1]. The “change of CD peak at about 270 nm / orientation upon addition of borax” value is “almost no decrease in the relevant peak was observed” (pH 6.0) and “very efficient increase in syn orientation proportion” (pH 8.8).
Boc-isoGln(5′I)-isoGln(5′U)-OH [I-U]: the “Δ[θ]ext” value amounted to 3400. Also, where the note is “borate buffer (pH 7.2)”, the Molar ellipticity ([θ]ext) at about 270 nm stood at 1400 deg·cm2/dmol. For the same compound, the Molar ellipticity ([θ]ext) at about 270 nm (phosphate buffer (pH 7.2)) was determined as 4800 deg·cm2/dmol.
For Boc-isoGln(5′U)-isoGln(5′I)-OH [U-I], the “Δ[θ]ext” value was determined as 3300. For the same compound, the Molar ellipticity ([θ]ext) at about 270 nm (phosphate buffer (pH 7.2)) is 6600 deg·cm2/dmol.
As for “Boc-isoGln(5′U)-isoGln(5′I)-isoGln(5′U)-OH [U-I-U]”, the “change of [θ]ext / CD peak from phosphate buffer to borate buffer (borax)” value was “[θ]ext decreases”.
For Boc-isoGln(5′U)-isoGln(5′U)-OH [U-U], the “Δ[θ]ext” value is on record as 11050. Also, the Molar ellipticity ([θ]ext) at about 270 nm (borate buffer (pH 7.2)) was found to be 1250 deg·cm2/dmol. For the same compound, the Molar ellipticity ([θ]ext) at about 270 nm (phosphate buffer (pH 7.2)) came out at 12300 deg·cm2/dmol.
For “Boc-isoGln(5′U)-isoGln(5′U)-isoGln(5′U)-OH [U-U-U]”, the “change of [θ]ext / CD peak from phosphate buffer to borate buffer (borax)” value was “[θ]ext decreases”.
